PubChem BioAssay (NCI)
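Each compound was tested at five concentrations against cells in 96-well plates for 48 hours. GI50 is the concentration that inhibits growth by half. The concentration for full growth arrest is given as TGI.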

Columns and labels:
Assay in all cases: DTP human tumour cell line panel, 48 h
HS 578T breast = system: HS 578T breast
A549 NSCLC = system: A549 NSCLC
HOP-92 NSCLC = system: HOP-92 NSCLC
UACC-257 melanoma = system: UACC-257 melanoma
RPMI-8226 leukemia = system: RPMI-8226 leukemia
SR leukemia = system: SR leukemia
MOLT-4 leukemia = system: MOLT-4 leukemia
HCC-2998 colon = system: HCC-2998 colon
SNB-19 CNS = system: SNB-19 CNS
BT-549 breast = system: BT-549 breast

| Compound | TGI (HS 578T breast) | TGI (A549 NSCLC) | TGI (HOP-92 NSCLC) | TGI (UACC-257 melanoma) | TGI (RPMI-8226 leukemia) | TGI (SR leukemia) | TGI (MOLT-4 leukemia) | TGI (HCC-2998 colon) | TGI (SNB-19 CNS) | TGI (BT-549 breast) | GI50 (HS 578T breast) | GI50 (HCC-2998 colon) | GI50 (A549 NSCLC) | GI50 (SNB-19 CNS) | GI50 (HOP-92 NSCLC) | GI50 (UACC-257 melanoma) | GI50 (RPMI-8226 leukemia) | GI50 (SR leukemia) | GI50 (MOLT-4 leukemia) | GI50 (BT-549 breast) |
| --- | --- | --- | --- | --- | --- | --- | --- | --- | --- | --- | --- | --- | --- | --- | --- | --- | --- | --- | --- | --- |
| Cc1cnc2[nH]c(-c3cccc(F)c3)cc(=O)c2c1 | 0.0448 µM | > 100 µM | > 100 µM | > 100 µM | > 43 µM | 0.378 µM | > 100 µM | – | – | – | – | – | – | – | – | – | – | – | – | – |
| N#Cc1nc(CCCN2C(=O)c3ccccc3C2=O)oc1N | > 100 µM | > 100 µM | – | > 100 µM | > 100 µM | > 100 µM | > 100 µM | > 100 µM | > 100 µM | > 100 µM | – | – | – | – | – | – | – | – | – | – |
| COc1cccc(N2C(=O)CS(=O)(=O)C2c2cccc(Oc3ccccc3)c2)c1 (stereo unspecified) | 70 µM | > 100 µM | 68.5 µM | 44.1 µM | – | 13.1 µM | 57.6 µM | – | > 100 µM | 61.4 µM | – | – | – | – | – | – | – | – | – | – |
| CC1CCc2sc3nc4n(c(=O)c3c2C1)CC(C)S4 (stereo unspecified) | > 100 µM | 70.5 µM | 64.9 µM | 50.9 µM | > 100 µM | > 100 µM | – | 42 µM | 88.6 µM | > 100 µM | – | – | – | – | – | – | – | – | – | – |
| CNC(=S)NNc1ncnc2c1c(-c1ccc(Cl)cc1)cn2-c1ccc(C)cc1 | 57.8 µM | 19.2 µM | 30.8 µM | 27 µM | 75.9 µM | > 100 µM | > 100 µM | – | 36.6 µM | 29.2 µM | – | – | – | – | – | – | – | – | – | – |
| CN(C)CCNc1c([N+](=O)[O-])sc2ccc(Cl)cc12 | > 100 µM | > 100 µM | – | – | > 100 µM | > 100 µM | 7.73 µM | > 100 µM | > 100 µM | > 100 µM | – | – | – | – | – | – | – | – | – | – |
| CCOC(=O)/C=C(/C=C\COC1CCCCO1)c1ccccc1 (stereo unspecified) | > 100 µM | > 100 µM | – | > 100 µM | > 100 µM | 53.8 µM | 80.3 µM | > 100 µM | > 100 µM | > 100 µM | – | – | – | – | – | – | – | – | – | – |
| c1c(N2CCOCC2)ssc1=[N+]1CCOCC1 | – | > 100 µM | > 100 µM | > 100 µM | > 100 µM | > 100 µM | > 100 µM | > 100 µM | > 100 µM | – | – | – | – | – | – | – | – | – | – | – |
| COc1cc(OC)cc(Oc2nc3cc(F)c(F)cc3nc2-c2ccccc2)c1 | > 100 µM | > 100 µM | > 100 µM | > 100 µM | – | > 100 µM | > 100 µM | – | > 100 µM | > 100 µM | – | – | – | – | – | – | – | – | – | – |
| C[N+]1(CCN=C=NC2CCCCC2)CCOCC1 | > 100 µM | > 100 µM | > 100 µM | > 100 µM | > 100 µM | > 100 µM | > 100 µM | – | > 100 µM | > 100 µM | – | – | – | – | – | – | – | – | – | – |
| CCCCN1C(=O)CC2[C@@H]3CCc4cc(OC)ccc4C3CC[C@]2(C)C1=O (stereo partly specified) | > 10 µM | > 10 µM | – | > 10 µM | > 10 µM | > 10 µM | > 10 µM | > 10 µM | > 10 µM | > 10 µM | – | – | – | – | – | – | – | – | – | – |
| Nc1c(S(N)(=O)=O)cc(S(N)(=O)=O)cc1S(N)(=O)=O | > 100 µM | > 100 µM | > 100 µM | > 100 µM | > 100 µM | – | > 100 µM | > 100 µM | > 100 µM | > 100 µM | – | – | – | – | – | – | – | – | – | – |
| CC1(C)N=C(N)N=C(N)N1c1cccc(OCc2cccc(N)c2)c1 | > 100 µM | > 100 µM | > 100 µM | 55 µM | > 100 µM | – | > 100 µM | – | > 100 µM | > 100 µM | – | – | – | – | – | – | – | – | – | – |
| CC(=O)N(C)c1ccc(Nc2ccnc3ccc4nn(C)nc4c23)cc1 | 53.2 µM | 78 µM | – | 58.3 µM | 46.9 µM | 77.1 µM | 58 µM | – | > 100 µM | 69.4 µM | – | – | – | – | – | – | – | – | – | – |
| CCN(CCCCCCCCCCN1CC(=O)N(CCCCCCCCCCN(CC)Cc2ccccc2OC)CC1=O)Cc1ccccc1OC | 4.26 µM | 4.54 µM | 2.34 µM | 3.34 µM | 3.1 µM | 2.37 µM | 8.04 µM | 2.9 µM | 10.5 µM | – | 1.35 µM | 1.46 µM | 1.65 µM | 3.18 µM | 0.359 µM | 1.7 µM | 0.812 µM | 0.355 µM | 1.8 µM | – |
| O=c1[nH]c(=O)n(C2CC(O)C(CO)O2)cc1OC/C=C/Cc1ccccc1 (stereo unspecified) | > 100 µM | > 100 µM | – | > 100 µM | > 100 µM | > 100 µM | > 100 µM | – | > 100 µM | > 100 µM | – | – | – | – | – | – | – | – | – | – |
| CCOC(=O)Cn1nnc2cc(Nc3c(C)[n+]([O-])c4cc(F)c(OCC)cc4[n+]3[O-])ccc21 | > 100 µM | – | 49.5 µM | > 100 µM | > 100 µM | – | > 100 µM | – | – | – | – | – | – | – | – | – | – | – | – | – |
| O=P1(C(O)/C=C/c2ccccc2)N(Cc2ccccc2)[C@@H]2CCCC[C@H]2N1Cc1ccccc1 (stereo partly specified) | 10.6 µM | 43 µM | 7.48 µM | 16.2 µM | 4.59 µM | – | 9.77 µM | 14.4 µM | 20.6 µM | 34.2 µM | – | – | – | – | – | – | – | – | – | – |
| COCC#C[C@@]1(O)CCCCC1CC(OC)OC (stereo partly specified) | > 100 µM | > 100 µM | > 100 µM | > 100 µM | 94.5 µM | > 100 µM | > 100 µM | > 100 µM | > 100 µM | – | – | – | – | – | – | – | – | – | – | – |
| CCOc1snc(C(Cl)(Cl)Cl)c1Cl | > 100 µM | 95.4 µM | – | 33.9 µM | 59.1 µM | 35.6 µM | 38 µM | 63.3 µM | 74.9 µM | 70.6 µM | – | – | – | – | – | – | – | – | – | – |
| CC(C)(C)c1cc(/C=C2/NC(=O)NC2=O)cc(C(C)(C)C)c1O | 36 µM | – | 27.9 µM | 29.9 µM | 31.9 µM | 33.2 µM | 44.6 µM | – | – | 27.3 µM | – | – | – | – | – | – | – | – | – | – |
| O=C1/C(=C/c2ccc(Cl)cc2)CCCc2ccc(F)cc21 | 62 µM | > 100 µM | 34 µM | 42.9 µM | 28.7 µM | – | > 100 µM | 54.9 µM | 80.2 µM | > 100 µM | 29.2 µM | 21.2 µM | 26.4 µM | 27.6 µM | 9.3 µM | 16.7 µM | 4.36 µM | – | 12.1 µM | 39.8 µM |
